Measured values from patent publication US10233184B2, “7-substituted sulfonimidoylpurinone compounds and derivatives for the treatment and prophylaxis of virus infection” (Hoffmann-La Roche Inc., priority 2016, dated 2019).
≈ marks a conversion by molar mass, not a printed value. Where “and” joins values, the source holds several entries; their conditions need not be identical. Equal values may be shown once. Read-outs that look alike come from different tables or passages of the source.

How the values were obtained:
LYSA solubility study = format: physicochemical; conditions: for solubility thermodynamic: phosphate buffer, pH 6.5, aqueous buffer, thermodynamic from solid; for LYSA of Active Forms / LYSA of Prodrugs: aqueous solubility, 0.05M phosphate buffer pH 6.5
Experimental: LYSA study is used to determine the aqueous solubility of tested compounds. Samples were prepared in duplicate from 10 mM DMSO stock solution. After evaporation of DMSO with a centrifugal vacuum evaporator, the compounds were dissolved in 0.05M phosphate buffer (pH 6.5), stirred for one hour and shaken for two hours. After one night, the solutions were filtered using a microtiter filter plate. Then the filtrate and its 1/10 dilution were analyzed by HPLC-UV. […] The results were in μg/mL. In case the percentage of sample measured in solution after evaporation divided by the calculated maximum of sample amount was bigger than 80%, the solubility was reported as bigger than this value.

human TLR7 = target: T1, human TLR7 (Homo sapiens, UniProt Q9NYK1); test: HEK293-Blue-hTLR-7 cells assay (SEAP reporter); format: cell-based; conditions: for EC50: HEK293-Blue-hTLR-7 cells, SEAP reporter, 20 hrs; for Ratio (EC50(prodrug)/EC50(active form)): EC50 of prodrug over EC50 of corresponding active form
T1 sequence (Q9NYK1 27-1049): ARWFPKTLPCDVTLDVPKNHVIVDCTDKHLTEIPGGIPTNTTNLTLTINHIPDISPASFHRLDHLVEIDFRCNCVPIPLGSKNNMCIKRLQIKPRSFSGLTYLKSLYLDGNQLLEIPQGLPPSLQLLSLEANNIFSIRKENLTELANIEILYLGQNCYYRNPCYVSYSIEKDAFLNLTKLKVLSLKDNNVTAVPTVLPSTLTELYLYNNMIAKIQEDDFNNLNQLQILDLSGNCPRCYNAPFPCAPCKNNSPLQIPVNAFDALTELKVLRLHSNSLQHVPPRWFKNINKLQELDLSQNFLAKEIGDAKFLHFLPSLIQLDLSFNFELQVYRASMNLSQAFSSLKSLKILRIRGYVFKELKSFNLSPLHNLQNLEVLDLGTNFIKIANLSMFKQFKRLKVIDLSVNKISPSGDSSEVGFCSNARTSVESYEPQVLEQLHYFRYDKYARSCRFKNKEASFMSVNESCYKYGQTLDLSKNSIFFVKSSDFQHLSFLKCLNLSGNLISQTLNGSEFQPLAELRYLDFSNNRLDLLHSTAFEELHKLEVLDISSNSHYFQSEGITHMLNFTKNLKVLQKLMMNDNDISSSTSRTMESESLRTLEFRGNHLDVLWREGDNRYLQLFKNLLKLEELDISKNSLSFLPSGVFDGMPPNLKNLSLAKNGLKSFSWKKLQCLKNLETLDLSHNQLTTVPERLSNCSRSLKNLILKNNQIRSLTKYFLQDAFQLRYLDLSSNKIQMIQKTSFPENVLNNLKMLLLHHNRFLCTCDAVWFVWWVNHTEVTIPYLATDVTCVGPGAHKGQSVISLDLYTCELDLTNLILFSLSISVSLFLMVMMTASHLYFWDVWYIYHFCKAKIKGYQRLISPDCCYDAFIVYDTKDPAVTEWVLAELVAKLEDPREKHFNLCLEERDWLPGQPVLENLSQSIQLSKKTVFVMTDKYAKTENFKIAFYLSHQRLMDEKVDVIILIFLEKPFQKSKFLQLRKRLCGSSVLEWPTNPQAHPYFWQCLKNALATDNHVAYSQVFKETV
In short: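 HEK293-Blue-hTLR7 cells with NF-κB/AP-1-driven SEAP reporter exposed to serially diluted compound (1% DMSO) for 20 hrs at 37° C. Supernatant SEAP measured with QUANTI-Blue after 2 hrs at 37° C, absorbance 620~655 nm; agonism expressed as EC50.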

[1] = Single dose PK study in male Wister-Han rats; format: in vivo; conditions: 5 mg/kg oral dosing of active form; for concentration at 7 h: 7 hrs (footnote), read-out: Mean plasma concentration (nM), 7 hrs (row 8*)
Experimental: The single dose PK in Male Wister-Han Rats was performed to assess pharmacokinetic properties of tested compounds. Two groups of animals were dosed via Gavage (POE) of the respective compound. […] Blood samples were placed into tubes containing EDTA-K2 anticoagulant and centrifuged at 5000 rpm for 6 min at 4° C. to separate plasma from the samples. After centrifugation, the resulting plasma was transferred to clean tubes for bioanalysis of both prodrug and active form on LC/MS/MS. In the groups that prodrug were dosed, the concentration of prodrugs in the plasma samples was under the detection limit. The “tested compound” in Table 8 was used as the internal standard for testing the metabolite (active form) of “dose compound” in vivo. The pharmacokinetic parameters were calculated using non-compartmental module of WinNonlin® Professional 6.2. The peak concentration (Cmax) was recorded directly from experimental observations. The area under the plasma concentration-time curve (AUC0-t) was calculated using the linear trapezoidal rule up to the last detectable concentration. Cmax and AUC0-last are two critical PK parameters related to the in vivo efficacy of the tested compound. Compounds with higher Cmax and AUC0-last will lead to the better in vivo efficacy.

[2] = 0.05M phosphate buffer pH 6.5, read-out: LYSA of Active Forms
[3] = active form, read-out: HEK293-hTLR-7 EC50 (Active form)
[4] = male, Wister-Han, rat, plasma, po, 5 mg/kg
[5] = 0.05M phosphate buffer pH 6.5, read-out: LYSA of Prodrugs
[6] = prodrug, read-out: HEK293-hTLR-7 EC50 (Prodrug)

| SMILES | solubility thermodynamic (LYSA solubility study; [2]) | EC50 (human TLR7; [3]) | AUC(0-t) [1, 4] | Cmax [1, 4] | concentration at 0.25 h [1, 4] | concentration at 0.5 h [1, 4] | concentration at 1 h [1, 4] | concentration at 2 h [1, 4] | concentration at 4 h [1, 4] | solubility thermodynamic (LYSA solubility study; [5]) | EC50 (human TLR7; [6]) | other results |
| --- | --- | --- | --- | --- | --- | --- | --- | --- | --- | --- | --- | --- |
| CC[S@@](=N)(=O)c1nc(N)c2[nH]c(=O)n(Cc3ccc(Cl)cc3)c2n1 (single isomer, unassigned) [Compound 41c-B] | 5 µg/mL (≈ 13.6 µM) | 0.085 µM | 0.0558 µM·h | 5.46 nM | 3.41 nM | 0.75 nM | 2.04 nM | 5.46 nM | 2.52 nM |  |  | concentration at 7 h [1, 4]: 1.21 nM |
| CC[S@](=N)(=O)c1nc(N)c2[nH]c(=O)n(Cc3ccc(Cl)cc3)c2n1 (single isomer, unassigned) [Compound 41c-A] | 1 µg/mL (≈ 2.73 µM) | 0.071 µM | 0.242 µM·h | 32.3 nM | 16.8 nM | 27.5 nM | 32.3 nM | 27.3 nM | 27.4 nM |  |  | concentration at 7 h [1, 4]: 18 nM; concentration at 24 h [1, 4]: 5.6 nM |
| CC[S@@](=N)(=O)c1nc(N)c2[nH]c(=O)n(Cc3ccc(C)cc3)c2n1 (single isomer, unassigned) [Compound 43e-A] | 13 µg/mL (≈ 37.5 µM) | 0.11 µM | 0.077 µM·h | 15.2 nM | 12.6 nM | 15.2 nM | 13 nM | 12 nM | 8.2 nM |  |  | concentration at 7 h [1, 4]: 6.31 nM |
| CCS(=N)(=O)c1nc(N)c2[nH]c(=O)n(Cc3ccc(F)cc3)c2n1 (single isomer, unassigned) [Compound 45e-B] |  | 0.26 µM and 0.39 µM |  |  |  |  |  |  |  |  |  | LYSA of Active Forms (LYSA solubility study): 115 µg/mL; AUC0-last [1]: 0.568 µM·h; Cmax [1]: 53.9 nM; concentration at 0.25 h ([1]; read-out: Mean plasma concentration (nM), 0.25 h): 42.8 nM; concentration at 0.5 h ([1]; read-out: Mean plasma concentration (nM), 0.5 h): 52.2 nM; concentration at 1 h ([1]; read-out: Mean plasma concentration (nM), 1 h): 37.6 nM; concentration at 2 h ([1]; read-out: Mean plasma concentration (nM), 2 h): 24.2 nM; concentration at 4 h ([1]; read-out: Mean plasma concentration (nM), 4 h): 53.9 nM; concentration at 8 h ([1]; read-out: Mean plasma concentration (nM), 8 h): 29 nM; concentration at 24 h ([1]; read-out: Mean plasma concentration (nM), 24 h): 5.7 nM |
| CCS(=N)(=O)c1nc(N)c2[nH]c(=O)n(Cc3ccc(F)cc3)c2n1 (single isomer, unassigned) [Compound 45e-A] |  | 0.39 µM and 0.26 µM | 0.767 µM·h | 80 nM | 64.6 nM | 80 nM | 58.1 nM | 42.5 nM | 77.8 nM |  |  | LYSA of Active Forms (LYSA solubility study): 90 µg/mL; concentration at 8 h [1, 4]: 34.6 nM; concentration at 24 h [1, 4]: 8.6 nM |
| CCCN(C)C(=O)n1c(=O)n(Cc2ccccc2)c2nc(S(=N)(=O)CCC)nc(N)c21 (stereo not drawn) [Example 1, 6-Amino-9-benzyl-N-methyl-8-oxo-N-propyl-2-(propylsulfonimidoyl)purine-7-carboxamide] |  |  |  |  |  |  |  |  |  | 290 µg/mL (≈ 651 µM) | 50.4 µM | Ratio (EC50(prodrug)/EC50(active form)) (human TLR7): 775.4 |
| CCN(C)C(=O)n1c(=O)n(Cc2ccc(F)cc2)c2nc(S(=N)(=O)CC)nc(N)c21 (single isomer, unassigned) [Example 46-A] |  |  |  |  |  |  |  |  |  |  | 45.5 µM | LYSA of Prodrugs (LYSA solubility study): 205 µg/mL |
| CCCN(C)C(=O)n1c(=O)n(Cc2ccc(C)cc2)c2nc([S@@](=N)(=O)CCC)nc(N)c21 [Example 36-A, 6-Amino-N-methyl-8-oxo-N-propyl-2[S(S)-propylsulfonimidoyl]-9-(p-tolylmethyl)purine-7-carboxamide] |  |  |  |  |  |  |  |  |  | 168 µg/mL (≈ 366 µM) | 31.8 µM | Ratio (EC50(prodrug)/EC50(active form)) (human TLR7): 1673.7 |
| CCCN(C)C(=O)n1c(=O)n(Cc2ccc(F)cc2)c2nc([S@@](=N)(=O)CC)nc(N)c21 (single isomer, unassigned) [Example 45-B] |  |  |  |  |  |  |  |  |  | 420 µg/mL (≈ 934 µM) | > 1000 µM |  |
| CCN(C)C(=O)n1c(=O)n(Cc2ccc(Br)cc2)c2nc(S(=N)(=O)CC)nc(N)c21 (single isomer, unassigned) [Example 48-B] |  |  |  |  |  |  |  |  |  |  | 20.8 µM | LYSA of Prodrugs (LYSA solubility study): 275 µg/mL |
| CCN(C)C(=O)n1c(=O)n(Cc2ccc(Br)cc2)c2nc(S(=N)(=O)CC)nc(N)c21 (single isomer, unassigned) [Example 48-A] |  |  |  |  |  |  |  |  |  | 305 µg/mL (≈ 614 µM) | 18.3 µM |  |
| CC[S@](=N)(=O)c1nc(N)c2[nH]c(=O)n(Cc3ccc(C)cc3)c2n1 (single isomer, unassigned) [Compound 43e-B] | 13 µg/mL (≈ 37.5 µM) | 0.035 µM |  |  |  |  |  |  |  |  |  |  |
